How the values were obtained:
[1] = system: BMP-2 production of human osteosarcoma cell strain HuO9; assay: Enhancing activity for BMP-2 production, enzyme immunoassay of culture medium; type: cell-based; settings: for Enhancing Activity for BMP-2 Production: HuO9; for Enhancement of BMP-2 production (result in words): HuO9 cells
Experimental: Human osteosarcoma cell strain HuO9 was suspended in a DMEM medium (manufactured by Bio Whittaker) containing 10% fetal bovine serum (manufactured by Bio Whittaker) so as to have a concentration of 1×10^5 cells/ml. The suspension was put into a 96-well plate in an amount of 0.1 ml per well, and the cells were cultured sterilely. After the cells were cultured for 2 days, the medium was exchanged with a fresh medium. The fucoidan derived from Kjellmaniella crassifolia obtained in item (1) of Reference Example 1 was added thereto as a sample, and the cells were cultured for 48 hours. Next, the concentration of bone morphogenetic protein-2 (BMP-2) in the culture medium was measured with enzyme immunoassay method (BMP-2 Immunoassay: manufactured by GT). The enhancing activity for BMP-2 production was expressed by setting as a control one without addition of the sample, and defining the BMP-2 concentration in the cell culture medium (the amount of BMP-2 production of a cell) as 100%.

[2] = system: Mouse embryo derived cell strain C3H10T1/2; assay: Induction of differentiation into osteoblasts, alkaline phosphatase activity in cells; type: cell-based; settings: for Alkaline Phosphatase Activity: 7 days, C3H10T1/2, control = 100%, average of two experiments
Experimental: Mouse embryo derived cell strain C3H10T1/2 was suspended in a DMEM medium containing 10% fetal bovine serum so as to have a concentration of 3×10^4 cells/ml. The suspension was put into a 96-well plate in an amount of 0.1 ml per well, and the cells were cultured sterilely. After the cells were cultured for 3 days, the medium was exchanged with a fresh medium. Heparan sulfate, or the Chlorella sulfated polysaccharide fraction CSP-I or CPS-II obtained in Reference Example 4 was added thereto as a sample, and the cells were cultured for 7 days. Subsequently, differentiation of C3H10T1/2 into osteoblasts was determined using an increase of the alkaline phosphatase activity in the cells as an index. The cells were washed once with PBS. One-hundred microliters of a reaction substrate solution (100 mM diethanolamine buffer pH 10.0, 2 mM magnesium chloride, 1 mM p-nitrophenyl phosphoric acid) was added thereto, and the reaction was carried out at 37° C. for 30 minutes. Next, 100 μl of 0.2 N sodium hydroxide was added thereto to stop the reaction, and the amount of p-nitrophenol which was released was determined with an absorbance at 405 nm. The alkaline phosphatase activity when a sample was added was expressed by setting as a control one without addition of the sample, wherein the alkaline phosphatase activity of the control was defined as 100%. The activity indicates an induction activity of differentiation into osteoblasts. The experiments were carried out twice, and the average value was taken.

[3] = 10 μg/ml, control = 100% (0.110 ng/ml)
[4] = 100 μg/ml, control = 100% (0.110 ng/ml)
[5] = 10 μg/ml, control = 100% (0.083 ng/ml)
[6] = 100 μg/ml, control = 100% (0.083 ng/ml carrageenans, 0.070 ng/ml low-molecular-weight heparin)
[7] = 500 μg/ml, control = 100% (0.201 ng/ml for 7-12SFd-F, 0.130 ng/ml for chondroitin sulfate B and pectic acid)
[8] = 1000 μg/ml, control = 100% (0.201 ng/ml for 7-12SFd-F, 0.130 ng/ml for chondroitin sulfate B and pectic acid)

Row | Compound | Enhancement of BMP-2 production (result in words) [1] | Enhancing Activity for BMP-2 Production [1, 5] | Enhancing Activity for BMP-2 Production [1, 6] | further results
1 | dextran sulfate | enhance BMP-2 production in a concentration-dependent manner |  |  | Enhancing Activity for BMP-2 Production [1, 3]: 2789%; Enhancing Activity for BMP-2 Production [1, 4]: 2984%
2 | carrageenan κ | enhance BMP-2 production in a concentration-dependent manner | 219.3% | 263.3% | 
3 | carrageenan ι | enhance BMP-2 production in a concentration-dependent manner | 201.2% | 517.5% | 
4 | carrageenan λ | enhance BMP-2 production in a concentration-dependent manner | 359.6% | 485.5% | 
5 | O=C(/C=C/c1ccc(O)c(O)c1)O[C@@H]1C[C@](O)(C(=O)O)C[C@@H](O)[C@H]1O [Chlorogenic Acid, chlorogenic acid] | enhance BMP-2 production in a concentration-dependent manner |  |  | Enhancing Activity for BMP-2 Production ([1]; 88.6 μg/ml, control = 100% (0.041 ng/ml)): 319.5%; Enhancing Activity for BMP-2 Production ([1]; 177.2 μg/ml, control = 100% (0.041 ng/ml)): 320.4%
6 | chondroitin sulfate B | enhance BMP-2 production in a concentration-dependent manner |  |  | Enhancing Activity for BMP-2 Production [1, 7]: 524.5%; Enhancing Activity for BMP-2 Production [1, 8]: 846.2%
7 | Heparan sulfate |  |  |  | Alkaline Phosphatase Activity ([2]; 10 μg/ml): 132.2%; Alkaline Phosphatase Activity ([2]; 100 μg/ml): 178.0%; Induction of differentiation into osteoblasts (result in words) ([2]; C3H10T1/2 cells): induce differentiation into osteoblasts in a concentration-dependent manner
8 | heparin | enhance BMP-2 production in a concentration-dependent manner |  |  | Enhancing Activity for BMP-2 Production [1, 3]: 435.1%; Enhancing Activity for BMP-2 Production [1, 4]: 1339%
9 | low-molecular-weight heparin | enhance BMP-2 production in a concentration-dependent manner |  | 390.0% | Enhancing Activity for BMP-2 Production ([1]; 1000 μg/ml, control = 100% (0.070 ng/ml)): 807.1%
10 | pectic acid | enhance BMP-2 production in a concentration-dependent manner |  |  | Enhancing Activity for BMP-2 Production [1, 7]: 220.3%; Enhancing Activity for BMP-2 Production [1, 8]: 242.1%

— US20060051316A1, “Remedy” (priority 2002, published 2006)
